Experimental data from PubChem BioAssay AID248 (DTP/NCI, 2004).
Values joined by “and” are separate entries in the source; they are usually repeats but may differ in a detail not shown here. Identical values can stand only once. Toxic doses and inconclusive results are not listed. No stated cut-off is given here; in the data, active means T/C of 150% or more; inactive means T/C below 125%.

Tested on: L1210 leukemia ip in BDF1 mice, survival T/C
Experiment: NCI In Vivo Anticancer Drug Screen. Data for tumor model L1210 Leukemia (intraperitoneal) in B6D2F1 (BDF1) mice
Settings: endpoint: mean survival time, higher = longer survival
How it was run: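 Transplanted-tumor mice were given test agent; controls received vehicle only. Survival readings from the two groups were divided (treated over control).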

[1] = dose: 100.0 mg/kg/injection, schedule: Q01DX001 (ip), vehicle: saline
[2] = dose: 200.0 mg/kg/injection, schedule: Q01DX001 (ip), vehicle: saline
[3] = dose: 400.0 mg/kg/injection, schedule: Q01DX001 (ip), vehicle: saline
[4] = dose: 100.0 mg/kg/injection, schedule: Q04DX002 (ip), vehicle: Klucel (hydroxypropylcellulose) (HPC)
[5] = dose: 200.0 mg/kg/injection, schedule: Q04DX002 (ip), vehicle: Klucel (hydroxypropylcellulose) (HPC)
[6] = dose: 50.0 mg/kg/injection, schedule: Q01DX001 (ip), vehicle: saline
[7] = dose: 50.0 mg/kg/injection, schedule: Q01DX009 (ip), vehicle: saline
[8] = dose: 100.0 mg/kg/injection, schedule: Q01DX009 (ip), vehicle: saline
[9] = dose: 200.0 mg/kg/injection, schedule: Q01DX009 (ip), vehicle: saline
[10] = dose: 100.0 mg/kg/injection, schedule: Q04DX002 (ip), vehicle: saline with Tween-80
[11] = dose: 200.0 mg/kg/injection, schedule: Q04DX002 (ip), vehicle: saline with Tween-80
[12] = dose: 400.0 mg/kg/injection, schedule: Q04DX002 (ip), vehicle: saline with Tween-80
[13] = dose: 50.0 mg/kg/injection, schedule: Q01DX009 (ip), vehicle: Klucel (hydroxypropylcellulose) (HPC)
[14] = dose: 100.0 mg/kg/injection, schedule: Q01DX009 (ip), vehicle: Klucel (hydroxypropylcellulose) (HPC)
[15] = dose: 100.0 mg/kg/injection, schedule: Q04DX003 (ip), vehicle: Klucel (hydroxypropylcellulose) (HPC)
[16] = dose: 100.0 mg/kg/injection, schedule: Q04DX003 (ip), vehicle: saline
[17] = dose: 200.0 mg/kg/injection, schedule: Q04DX003 (ip), vehicle: saline
[18] = dose: 400.0 mg/kg/injection, schedule: Q04DX003 (ip), vehicle: saline
[19] = dose: 200.0 mg/kg/injection, schedule: Q01DX009 (ip), vehicle: Klucel (hydroxypropylcellulose) (HPC)
[20] = dose: 200.0 mg/kg/injection, schedule: Q04DX003 (ip), vehicle: Klucel (hydroxypropylcellulose) (HPC)
[21] = dose: 400.0 mg/kg/injection, schedule: Q04DX003 (ip), vehicle: Klucel (hydroxypropylcellulose) (HPC)
[22] = dose: 100.0 mg/kg/injection, schedule: Q04DX003 (ip), vehicle: saline with Tween-80
[23] = dose: 200.0 mg/kg/injection, schedule: Q04DX003 (ip), vehicle: saline with Tween-80
[24] = dose: 400.0 mg/kg/injection, schedule: Q04DX003 (ip), vehicle: saline with Tween-80

Measured: T/C

C1Cc2c3c4c(c5c2C(C1)CCC5)CCCC4CCC3
inactive: [1] 97 % of control | [2] 94 % of control | [3] 91 % of control

Nc1cc(F)c2c(c1)Cc1cc(F)ccc1-2
inactive: dose: 50.0 mg/kg/injection, schedule: Q01DX001 (ip), vehicle: carboxymethylcellulose (CMC) 101 % of control | dose: 100.0 mg/kg/injection, schedule: Q01DX001 (ip), vehicle: carboxymethylcellulose (CMC) 109 % of control | dose: 200.0 mg/kg/injection, schedule: Q01DX001 (ip), vehicle: carboxymethylcellulose (CMC) 95 % of control

O=C1NC2Cc3ccccc3CC12 (configuration not stated)
inactive: [4] 102 % of control | [5] 100 % of control | dose: 400.0 mg/kg/injection, schedule: Q04DX002 (ip), vehicle: Klucel (hydroxypropylcellulose) (HPC) 86 % of control

Cc1ccc(S(=O)(=O)OCCCN(CCCOS(=O)(=O)c2ccc(C)cc2)c2ccccc2)cc1
inactive: [6] 101 % of control | [1] 86 % of control | [2] 95 % of control | [3] 95 % of control

O=C(O)CC(C(=O)O)=C1CCCCC1
inactive: [7] 98 % of control | [8] 98 % of control | [9] 100 % of control

CC1=C(/C=C/C(C)=C/C=C/C(C)=C/C=O)C(C)(C)CCC1
inactive: dose: 50.0 mg/kg/injection, schedule: Q01DX009 (ip), vehicle: steriod suspending solution 89 % of control and 95 % of control | dose: 100.0 mg/kg/injection, schedule: Q01DX009 (ip), vehicle: steriod suspending solution 92 % of control | dose: 200.0 mg/kg/injection, schedule: Q01DX001 (sc), vehicle: steriod suspending solution 96 % of control and 95 % of control | dose: 400.0 mg/kg/injection, schedule: Q01DX001 (sc), vehicle: steriod suspending solution 96 % of control

CN(N)Cc1cccc(O)c1
inactive: [7] 101 % of control | [8] 104 % of control | [9] 101 % of control

NCCCc1c(-c2ccccc2)nc(N)[nH]c1=O
inactive: [6] 108 % of control | [1] 110 % of control | [2] 98 % of control

CCC(F)C(Br)C(=O)O (configuration not stated)
inactive: [10] 101 % of control | [11] 93 % of control | [12] 87 % of control

COc1ccccc1NC(N)=S
inactive: dose: 25.0 mg/kg/injection, schedule: Q01DX009 (ip), vehicle: Klucel (hydroxypropylcellulose) (HPC) 94 % of control | dose: 25.0 mg/kg/injection, schedule: Q04DX003 (ip), vehicle: Klucel (hydroxypropylcellulose) (HPC) 98 % of control | [13] 97 % of control | dose: 50.0 mg/kg/injection, schedule: Q04DX003 (ip), vehicle: Klucel (hydroxypropylcellulose) (HPC) 92 % of control | [14] 101 % of control | [15] 103 % of control

CN(C)c1cc2c3c(c1)CCCN3CCC2
inactive: dose: 6.25 mg/kg/injection, schedule: Q01DX001 (ip), vehicle: saline 108 % of control | dose: 12.5 mg/kg/injection, schedule: Q01DX001 (ip), vehicle: saline 101 % of control

C=CC(C)C1CCC2(C)C3=C(C(=O)CC12C)C1(C)C/C(=N/O)C(O)C(C)(C)C1=C(O)C3=O (configuration not stated)
inactive: [16] 98 % of control | [17] 95 % of control | [18] 98 % of control

Cc1ccc(S(=O)(=O)OCCOCCOc2ccc(C(C)(C)CC(C)(C)C)cc2)cc1
inactive: dose: 100.0 mg/kg/injection, schedule: Q01DX001 (ip), vehicle: acetone 97 % of control | [16] 98 % of control | dose: 200.0 mg/kg/injection, schedule: Q01DX001 (ip), vehicle: acetone 89 % of control | [17] 92 % of control | dose: 400.0 mg/kg/injection, schedule: Q01DX001 (ip), vehicle: acetone 87 % of control | [18] 91 % of control

C#CCCCCC#C
inactive: [13] 98 % of control | [14] 106 % of control | [15] 98 % of control | [19] 97 % of control | [20] 91 % of control | [21] 86 % of control

Cc1cc2c([N+](=O)[O-])c3cccnn3c2nn1
inactive: dose: 50.0 mg/kg/injection, schedule: Q04DX002 (ip), vehicle: Klucel (hydroxypropylcellulose) (HPC) 114 % of control | [4] 111 % of control | [5] 91 % of control

CCN(CC)CCNc1ccc([N+](=O)[O-])cc1[N+](=O)[O-]
inactive: dose: 50.0 mg/kg/injection, schedule: Q01DX009 (ip), vehicle: saline with Tween-80 88 % of control | dose: 100.0 mg/kg/injection, schedule: Q01DX001 (ip), vehicle: Klucel (hydroxypropylcellulose) (HPC) 103 % of control | dose: 100.0 mg/kg/injection, schedule: Q01DX009 (ip), vehicle: saline with Tween-80 102 % of control | dose: 200.0 mg/kg/injection, schedule: Q01DX001 (ip), vehicle: Klucel (hydroxypropylcellulose) (HPC) 103 % of control

COC1OCCCC1OC(=O)c1ccccc1 (configuration not stated)
inactive: [6] 109 % of control | [1] 103 % of control | [2] 105 % of control | [3] 94 % of control

NC1C2C(CC(=O)O)OCC=C3CN4CCC1(C(=O)C(=O)O)C4CC32 (configuration not stated)
inactive: dose: 0.5 mg/kg/injection, schedule: Q01DX001 (ip), vehicle: saline 101 % of control | dose: 1.0 mg/kg/injection, schedule: Q01DX001 (ip), vehicle: saline 101 % of control | dose: 2.0 mg/kg/injection, schedule: Q01DX001 (ip), vehicle: saline 102 % of control | dose: 4.0 mg/kg/injection, schedule: Q01DX001 (ip), vehicle: saline 106 % of control

O=C1OC(=C(c2ccccc2)c2ccccc2)c2ccccc21
inactive: [8] 100 % of control | [22] 96 % of control | [9] 100 % of control | [23] 96 % of control | [24] 90 % of control

Cc1cc2c([N+](=O)[O-])c3ccc(N4CCCCC4)nn3c2n[n+]1[O-]
inactive: dose: 31.3 mg/kg/injection, schedule: Q04DX002 (ip), vehicle: Klucel (hydroxypropylcellulose) (HPC) 95 % of control | dose: 62.5 mg/kg/injection, schedule: Q04DX002 (ip), vehicle: Klucel (hydroxypropylcellulose) (HPC) 111 % of control | dose: 125.0 mg/kg/injection, schedule: Q04DX002 (ip), vehicle: Klucel (hydroxypropylcellulose) (HPC) 122 % of control

c1ccc(-c2sc(-c3ccccc3)c(-c3ccccc3)c2-c2ccccc2)cc1
inactive: [15] 93 % of control | [20] 95 % of control | [21] 95 % of control

COc1cc([N+](=O)[O-])ccc1NC(=O)Oc1ccc(-c2ccccc2)cc1
inactive: [14] 95 % of control | [19] 95 % of control | dose: 400.0 mg/kg/injection, schedule: Q01DX009 (ip), vehicle: Klucel (hydroxypropylcellulose) (HPC) 98 % of control

Cc1ccc(C(C)(Cl)/N=N\C(C)(Cl)c2ccc([N+](=O)[O-])cc2)cc1 (configuration not stated)
inactive: [22] 90 % of control | [23] 96 % of control | [24] 98 % of control

CC(CO)[CH2][Sn]([c]1ccccc1)([c]1ccccc1)[c]1ccccc1 (configuration not stated)
inactive: [10] 98 % of control and 101 % of control | [11] 98 % of control | [12] 95 % of control and 98 % of control

CC(=O)c1ccc(OCC(O)CN2CCN(c3ccccc3)CC2)c(C)c1 (configuration not stated)
inactive: [22] 108 % of control | [23] 108 % of control | [24] 101 % of control

BrCCOC1CCCCO1 (configuration not stated)
inactive: dose: 25.0 mg/kg/injection, schedule: Q01DX005 (ip), vehicle: saline 105 % of control | dose: 50.0 mg/kg/injection, schedule: Q01DX005 (ip), vehicle: saline 117 % of control | dose: 100.0 mg/kg/injection, schedule: Q01DX005 (ip), vehicle: saline 107 % of control | dose: 200.0 mg/kg/injection, schedule: Q01DX005 (ip), vehicle: saline 105 % of control

Cc1c(Cl)ccc2c(C(=O)NN)cc(-c3ccc(Cl)cc3)nc12
inactive: dose: 100.0 mg/kg/injection, schedule: Q01DX001 (ip), vehicle: saline with Tween-80 92 % of control | dose: 200.0 mg/kg/injection, schedule: Q01DX001 (ip), vehicle: saline with Tween-80 97 % of control | dose: 400.0 mg/kg/injection, schedule: Q01DX001 (ip), vehicle: saline with Tween-80 97 % of control
